From patent US9150579B2, “Selective PI3K delta inhibitors” (Rhizen Pharmaceuticals SA, priority 2012, dated 2015)

Legend:
[1] = Metabolic stability in rat liver microsomes; type: in vitro ADME; settings: 1 μM test item, 60 minutes, NADPH
Method: Metabolic stability studies were conducted using mouse, rat, and human liver microsomes. The protocol for the studies with mouse, rat, and human liver microsomes (all from BD Gentest, USA) is provided below. In brief, 0.4 mg protein was preincubated with 2 mM NADPH (cofactor) in phosphate buffer (pH˜7.4) for 15 min at 37° C. and then added with 1 μM test item and incubated further for 60 minutes in triplicate. The reaction mixture was terminated with methanol containing an internal standard and centrifuged further to analyze the test item remaining in the supernatant by LC-MS/MS. The percent parent compound remaining was calculated in comparison with similar samples terminated at 0 minutes.

PI3K delta = PI3K delta (Homo sapiens (Human), UniProt O00329); assay: Assay 1: Fluorescent (HTRF) determination of PI3K enzyme activity, delta; type: biochemical
Method: (§1) The homogenous time resolved fluorescence (HTRF) assay allows detection of 3,4,5-triphosphate (PIP3) formed as a result of phosphorylation of phosphotidylinositol 4,5-biphosphate (PIP2) by PI3K isoforms such as α, β, γ or δ.
(§2) PI3K isoform activity for α, β, γ or δ was determined using a PI3K human HTRF™ Assay Kit (Millipore, Billerica, Mass.) with modifications. All incubations were carried out at room temperature. […] After the initial incubation, 5 μl/well of 400 μM ATP was added and incubated for an additional 30 minutes. Reaction was terminated by adding 5 μl/well stop solution (Millipore, Billerica, Mass.). Five microliters of detection mix (Millipore, Billerica, Mass.) were then added to each well and was incubated for 6-18 h in the dark. HRTF ratio was measured on a microplate reader (BMG Labtech., Germany) at an excitation wavelength of 337 nm and emission wavelengths of 665 and 620 nm with an integration time of 400 μsec.

PI3K γ = PI3K γ (Homo sapiens (Human), UniProt P48736); assay: Assay 1: Fluorescent (HTRF) determination of PI3K enzyme activity, gamma; type: biochemical
Method: as §1
as §2, with “dark.” for “dark. HRTF ratio was measured on a microplate reader (BMG Labtech., Germany) at an excitation wavelength of 337 nm and emission wavelengths of 665 and 620 nm with an integration time of 400 μsec.”

[2] = system: AKT phosphorylation in THP-1, HL-60, MOLT-4, RPMI-8226, or DLBCL cells; assay: Assay 3: Inhibition of AKT phosphorylation in leukemic cell lines; type: cell-based; settings: 48 hours, Western Blotting
Method: Inhibition of AKT phosphorylation in leukemic cell lines: THP-1, HL-60, MOLT-4, RPMI-8226, or DLBCL cells were incubated with desired concentrations of compound for 48 hours. Cells were lysed and pAKT was determined by Western Blotting. Bands were quantified using ImageJ and normalized to actin.

PI3Kδ = PI3Kδ (Homo sapiens (Human), UniProt O00329); assay: Assay 4a: IgM-induced B cell proliferation assay (PI3Kδ); settings: Cell-based
Method: (§3) Compound specificity towards PI3Kδ was determined in an IgM-induced B cell proliferation assay. B-cells isolated from blood of healthy subjects were seeded in a 96-well tissue culture plate and incubated with desired concentrations of compound for 30 min. Cells were stimulated with 5 μg/ml purified goat anti-human IgM. Growth was assessed using the 3-[4,5-dimethylthiazol-2-yl]-2,5-diphenyltetrazolium bromide (MTT) dye reduction test. For selectivity against PI3K α, β, or γ isoforms, NIH-3T3 or RAW macrophages were seeded in a 6-well tissue culture plate and incubated overnight. Complete medium was replaced with serum-free media the following day and compound at the desired concentrations were added. After 15 minutes, 20 ng/ml PDGF, 5 μM LPA, or 50 ng/ml c5a was added and incubated for an additional 10 minutes. Cells were lysed and AKT phosphorylation was determined by Western Blotting. Intensity of the bands was determined using ImageJ 1.42q (NIH, USA) and normalized to Actin (loading control).

PI3Kα = PI3Kα (Mus musculus (Mouse), UniProt P42337); settings: Cell-based; versus PI3Kδ
Method: as §3

PI3Kβ = PI3Kβ (Mus musculus (Mouse), UniProt Q8BTI9); settings: Cell-based; versus PI3Kδ
Method: as §3

PI3Kγ = PI3Kγ (Mus musculus (Mouse), UniProt Q9JHG7); settings: Cell-based; versus PI3Kδ
Method: as §3

[3] = system: pAKT in AML patient bone marrow leukemic cells; assay: Assay 6-II: pAKT analysis of AML patient bone marrow sample (pAKT ELISA); type: cell-based, human
Method: 6-II: pAKT analysis of AML patient bone marrow sample using pAKT ELISA kit: Mononuclear cells were extracted by the Ficoll method and seeded in plates. The cells were treated by different compounds for 48 hrs before they were analyzed by pAKT ELISA kit following the product protocol. Briefly, 1×10^6 cells were transferred into an ELISA kit well and lyzed with 10 μL 5× Cell Lysis Mix (phospho-AKT 1/2/3 (Ser473) InstantOne™ ELISA Kit, eBioscience, 85-86042). The cells were then incubated with 50 μl antibody cocktail for 1 hr at room temp. on a microplate shaker (˜300 rpm). After incubating with detection reagent, the result was measured using a SpectraMAX Plus microplate spectrophotometer set at 450 nm.

[4] = system: AML patient bone marrow leukemic cells; assay: Assay 6-I: Flow cytometry analysis of apoptotic induction in AML patient bone marrow leukemic cells; type: cell-based, human
Method: 6-I: Flow cytometry analysis of apoptotic induction in AML patient bone marrow leukemic cells upon compound treatment using Annexin V and 7-AAD staining: Mononuclear cells were extracted by the Ficoll method and seeded in plates. The cells were treated by different compounds for 48 hrs before they were analyzed by flow cytometry. After washing with PBS, 1×10^5 cells were stained by Annexin V-APC and 7-AAD. Annexin V positive staining measures total apoptotic cells, including early and late apoptotic cells. For Annexin V positive cells, 7-AAD negative signal reflects early apoptotic cells.

[5] = system: PI3Kδ signalling in basophils; assay: Assay 4: Inhibition of PI3Kδ signalling in basophils from human whole blood (anti-FcεR1 induced CD63 expression); settings: read-out: EC50, inhibition of anti-FcεR1 mediated CD63 expression
Method: PI3Kδ signalling in basophils manifested by an alteration of anti-FcεR1 induced CD63 expression is a useful pharmacodynamic marker determined using the Flow2CAST® kit (Buhlmann Laboratories, Switzerland). Briefly, it involves the following steps: • Mix the anti-coagulated blood sample by inverting the venipuncture tube several times • Prepare fresh and pyrogen-free 3.5 ml polypropylene or polystyrene tubes suitable for Flow Cytometry measurements • Add 49 μl of patient's whole blood to each tube. • Add 1 μl of 10% DMSO (background) or compound (10% DMSO) to the assigned tubes and mix gently. Incubate at room temperature for 15 min • Pipette 50 μl of the Stimulation buffer (background) or anti-FcεRI Ab to each tube • Add 100 μl of Stimulation Buffer to each tube • Mix gently. […] (using an incubator will take about 10 minutes longer incubation time due to less efficient heat transfer) • Add 2 ml pre-warmed (18-28° C.) Lysing Reagent to each tube, mix gently • Incubate for 5-10 minutes at 18-28° C. • Centrifuge the tubes for 5 minutes at 500×g • Decant the supernatant by using blotting paper • Resuspend the cell pellet with 300-800 μl of Wash Buffer • Vortex gently and acquire the data on the flow cytometer within the same day. • Percent CD63 positive cells within the gated basophil population are to be determined in different treatment groups and normalized to vehicle control.

Chain of PI3K γ (P48736 whole entry): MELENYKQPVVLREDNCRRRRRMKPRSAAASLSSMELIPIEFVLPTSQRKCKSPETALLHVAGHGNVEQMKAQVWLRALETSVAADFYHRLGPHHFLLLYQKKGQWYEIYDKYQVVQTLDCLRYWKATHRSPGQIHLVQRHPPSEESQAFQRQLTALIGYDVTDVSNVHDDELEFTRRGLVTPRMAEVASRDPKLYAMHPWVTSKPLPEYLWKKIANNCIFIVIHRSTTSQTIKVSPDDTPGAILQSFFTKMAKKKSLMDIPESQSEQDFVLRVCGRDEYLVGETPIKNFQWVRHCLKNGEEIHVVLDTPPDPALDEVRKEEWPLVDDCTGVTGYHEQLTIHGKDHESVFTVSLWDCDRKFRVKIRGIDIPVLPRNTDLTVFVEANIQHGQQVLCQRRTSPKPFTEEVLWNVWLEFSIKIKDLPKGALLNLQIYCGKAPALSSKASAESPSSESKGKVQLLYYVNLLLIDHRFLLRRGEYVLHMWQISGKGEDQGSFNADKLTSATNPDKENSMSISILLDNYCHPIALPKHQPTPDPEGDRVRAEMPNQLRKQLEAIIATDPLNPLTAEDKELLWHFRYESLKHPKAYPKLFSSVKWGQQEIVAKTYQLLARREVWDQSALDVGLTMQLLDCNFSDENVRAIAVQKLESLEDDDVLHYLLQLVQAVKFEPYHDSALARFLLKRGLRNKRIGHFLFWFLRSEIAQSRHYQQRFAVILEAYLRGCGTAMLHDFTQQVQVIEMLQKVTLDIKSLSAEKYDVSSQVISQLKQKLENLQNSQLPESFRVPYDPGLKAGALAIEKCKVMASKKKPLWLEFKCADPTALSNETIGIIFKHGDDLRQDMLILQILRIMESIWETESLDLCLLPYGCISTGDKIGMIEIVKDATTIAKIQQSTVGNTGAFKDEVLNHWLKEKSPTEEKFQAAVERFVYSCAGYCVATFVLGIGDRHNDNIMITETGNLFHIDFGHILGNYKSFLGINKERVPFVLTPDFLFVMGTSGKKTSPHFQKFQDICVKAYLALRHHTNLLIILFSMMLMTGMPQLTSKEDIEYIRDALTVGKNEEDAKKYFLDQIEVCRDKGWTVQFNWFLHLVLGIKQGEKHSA
Chain of PI3Kβ (Q8BTI9 whole entry): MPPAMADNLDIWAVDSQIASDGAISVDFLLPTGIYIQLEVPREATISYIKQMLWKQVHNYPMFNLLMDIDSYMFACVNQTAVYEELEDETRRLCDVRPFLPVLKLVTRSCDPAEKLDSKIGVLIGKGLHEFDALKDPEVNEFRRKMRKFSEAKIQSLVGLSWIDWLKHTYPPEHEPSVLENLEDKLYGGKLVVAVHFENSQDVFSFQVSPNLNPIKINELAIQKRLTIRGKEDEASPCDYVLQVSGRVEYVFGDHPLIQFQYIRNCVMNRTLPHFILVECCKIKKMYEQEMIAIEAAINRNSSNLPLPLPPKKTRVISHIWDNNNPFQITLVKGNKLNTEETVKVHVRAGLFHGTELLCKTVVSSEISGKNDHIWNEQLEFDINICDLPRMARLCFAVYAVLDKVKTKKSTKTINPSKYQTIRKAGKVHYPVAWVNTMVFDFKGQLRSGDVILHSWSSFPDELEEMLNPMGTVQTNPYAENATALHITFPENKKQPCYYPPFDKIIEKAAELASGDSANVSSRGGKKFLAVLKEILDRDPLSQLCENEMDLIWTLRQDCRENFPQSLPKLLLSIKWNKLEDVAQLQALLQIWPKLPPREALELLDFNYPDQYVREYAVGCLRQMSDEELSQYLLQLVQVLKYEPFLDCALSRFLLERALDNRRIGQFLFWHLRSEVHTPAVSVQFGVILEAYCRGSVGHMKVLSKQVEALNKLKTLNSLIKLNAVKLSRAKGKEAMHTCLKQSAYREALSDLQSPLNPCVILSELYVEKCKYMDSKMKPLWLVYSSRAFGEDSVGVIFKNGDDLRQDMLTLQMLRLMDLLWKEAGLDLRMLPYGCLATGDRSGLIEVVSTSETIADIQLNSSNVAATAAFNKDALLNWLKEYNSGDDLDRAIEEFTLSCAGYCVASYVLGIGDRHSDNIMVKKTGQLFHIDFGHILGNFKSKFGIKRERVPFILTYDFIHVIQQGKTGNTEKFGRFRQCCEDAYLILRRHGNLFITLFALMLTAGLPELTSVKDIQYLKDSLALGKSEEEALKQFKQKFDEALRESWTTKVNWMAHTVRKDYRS
Chain of PI3Kβ (P26450 whole entry partner): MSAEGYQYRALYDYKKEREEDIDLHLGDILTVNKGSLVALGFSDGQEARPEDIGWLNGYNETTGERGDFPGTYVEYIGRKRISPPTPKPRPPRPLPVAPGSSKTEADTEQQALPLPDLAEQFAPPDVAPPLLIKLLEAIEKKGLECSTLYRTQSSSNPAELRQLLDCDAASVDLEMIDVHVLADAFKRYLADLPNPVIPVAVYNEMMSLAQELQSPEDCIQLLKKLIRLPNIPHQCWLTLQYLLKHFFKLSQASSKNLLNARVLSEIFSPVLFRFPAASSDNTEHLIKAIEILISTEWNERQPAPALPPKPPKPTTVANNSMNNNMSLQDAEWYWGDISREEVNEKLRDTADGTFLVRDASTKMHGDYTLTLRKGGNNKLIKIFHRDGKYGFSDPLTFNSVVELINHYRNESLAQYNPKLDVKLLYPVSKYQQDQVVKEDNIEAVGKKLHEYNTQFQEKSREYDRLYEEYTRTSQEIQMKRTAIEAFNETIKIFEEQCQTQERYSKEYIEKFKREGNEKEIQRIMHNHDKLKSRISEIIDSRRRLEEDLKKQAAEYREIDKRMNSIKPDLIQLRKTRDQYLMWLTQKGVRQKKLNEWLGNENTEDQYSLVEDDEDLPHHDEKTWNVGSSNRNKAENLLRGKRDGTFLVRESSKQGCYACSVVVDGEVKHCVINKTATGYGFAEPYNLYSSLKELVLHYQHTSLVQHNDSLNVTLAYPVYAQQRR
Chain of PI3Kα (P42337 whole entry): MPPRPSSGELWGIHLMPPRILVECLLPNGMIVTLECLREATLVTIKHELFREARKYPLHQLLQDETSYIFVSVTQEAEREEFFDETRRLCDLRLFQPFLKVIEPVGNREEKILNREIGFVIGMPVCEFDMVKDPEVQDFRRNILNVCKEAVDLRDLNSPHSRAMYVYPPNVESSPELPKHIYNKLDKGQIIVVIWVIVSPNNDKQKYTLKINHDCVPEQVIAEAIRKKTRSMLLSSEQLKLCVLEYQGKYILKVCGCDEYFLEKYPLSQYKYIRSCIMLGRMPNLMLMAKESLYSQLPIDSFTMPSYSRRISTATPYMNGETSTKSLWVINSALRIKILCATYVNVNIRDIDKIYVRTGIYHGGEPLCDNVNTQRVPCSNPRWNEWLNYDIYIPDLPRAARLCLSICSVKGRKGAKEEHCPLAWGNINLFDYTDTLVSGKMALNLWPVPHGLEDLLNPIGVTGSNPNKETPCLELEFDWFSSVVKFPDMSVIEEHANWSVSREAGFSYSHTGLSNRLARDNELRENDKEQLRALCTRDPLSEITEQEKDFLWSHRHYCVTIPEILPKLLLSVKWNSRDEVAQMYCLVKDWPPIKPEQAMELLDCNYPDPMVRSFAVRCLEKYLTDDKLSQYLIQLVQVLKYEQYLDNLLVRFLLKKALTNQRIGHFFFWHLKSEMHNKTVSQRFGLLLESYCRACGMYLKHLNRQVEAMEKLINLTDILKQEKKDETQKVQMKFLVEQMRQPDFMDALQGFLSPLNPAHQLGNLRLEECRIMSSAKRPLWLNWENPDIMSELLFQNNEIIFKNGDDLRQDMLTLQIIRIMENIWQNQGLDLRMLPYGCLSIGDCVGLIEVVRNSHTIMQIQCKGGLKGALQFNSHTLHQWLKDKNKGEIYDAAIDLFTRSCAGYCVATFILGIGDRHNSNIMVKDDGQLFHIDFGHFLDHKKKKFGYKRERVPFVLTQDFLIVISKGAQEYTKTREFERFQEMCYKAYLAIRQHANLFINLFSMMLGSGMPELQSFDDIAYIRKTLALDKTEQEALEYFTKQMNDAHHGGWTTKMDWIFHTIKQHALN
Chain of PI3Kα (P26450 whole entry partner): as the sequence (P26450 whole entry partner) above
Chain of PI3Kγ (Q9JHG7 whole entry): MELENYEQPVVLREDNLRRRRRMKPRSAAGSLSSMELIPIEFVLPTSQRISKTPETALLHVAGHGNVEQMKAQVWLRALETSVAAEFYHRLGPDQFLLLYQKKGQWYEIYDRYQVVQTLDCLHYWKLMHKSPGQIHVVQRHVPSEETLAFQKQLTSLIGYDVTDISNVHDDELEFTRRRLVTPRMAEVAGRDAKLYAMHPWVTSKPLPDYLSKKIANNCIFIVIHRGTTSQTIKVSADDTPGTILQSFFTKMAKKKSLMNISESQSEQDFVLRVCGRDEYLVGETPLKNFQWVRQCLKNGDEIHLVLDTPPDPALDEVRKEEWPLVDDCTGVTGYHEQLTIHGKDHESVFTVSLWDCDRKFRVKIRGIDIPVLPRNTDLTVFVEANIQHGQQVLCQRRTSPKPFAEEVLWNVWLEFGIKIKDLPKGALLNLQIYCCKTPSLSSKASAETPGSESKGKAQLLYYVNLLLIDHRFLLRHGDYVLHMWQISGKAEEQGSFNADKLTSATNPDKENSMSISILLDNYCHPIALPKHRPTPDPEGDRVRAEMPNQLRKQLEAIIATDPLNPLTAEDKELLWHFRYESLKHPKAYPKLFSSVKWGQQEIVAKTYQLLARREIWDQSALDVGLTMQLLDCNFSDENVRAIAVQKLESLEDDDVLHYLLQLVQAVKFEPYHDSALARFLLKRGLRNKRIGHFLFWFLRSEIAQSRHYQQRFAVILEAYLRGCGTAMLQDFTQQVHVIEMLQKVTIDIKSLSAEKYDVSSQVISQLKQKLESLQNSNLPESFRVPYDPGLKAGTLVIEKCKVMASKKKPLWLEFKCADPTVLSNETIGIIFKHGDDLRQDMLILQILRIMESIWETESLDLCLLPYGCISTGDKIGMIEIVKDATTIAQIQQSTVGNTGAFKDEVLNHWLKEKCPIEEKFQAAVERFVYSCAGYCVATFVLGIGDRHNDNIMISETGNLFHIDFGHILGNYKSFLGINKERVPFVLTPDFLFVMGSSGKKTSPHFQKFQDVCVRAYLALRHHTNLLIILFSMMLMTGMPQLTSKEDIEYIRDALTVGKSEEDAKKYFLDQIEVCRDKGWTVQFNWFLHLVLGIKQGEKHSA

- Metabolic stability in liver microsomes, Rat (percent parent compound remaining) [1]: 35.8%
- IC50 (PI3K delta): 13.8 nM
- inhibition at 1 µM (PI3K γ): 80.6%
- Fold-Selectivity PI3Kγ (PI3K γ; Enzyme, versus PI3Kδ): >9 fold
- EC50 (PI3Kδ): < 50 nM
- Fold-Selectivity PI3Kα (PI3Kα): >1000 fold
- Fold-Selectivity PI3Kβ (PI3Kβ): >30 fold
- Fold-Selectivity PI3Kγ (PI3Kγ): >8 fold
- EC50 [5]: ≤ 100 nM
SMILES: CC(C)Oc1ccc(-c2nn([C@@H](C)c3oc4ccccc4c(=O)c3-c3cccc(F)c3)c3ncnc(N)c23)cc1F [Compound A1, (S)-2-(1-(4-amino-3-(3-fluoro-4-isopropoxyphenyl)-1H-pyrazolo[3,4-d]pyrimidin-1-yl)ethyl)-3-(3-fluorophenyl)-4H-chromen-4-one]
- inhibition at 1 µM [2]: 50 to 90%
- AKT phosphorylation (dose dependence) [3]: dose dependent reduction
- inhibition at 0.3 µM ([3]; Homo sapiens, Bone marrow cell, 0.3 μM, 48 hrs): > 50%
- number of apoptotic cells [4]: concomitant increase in the number of apoptotic cells
- fold increase in apoptosis ([4]; 3 μM, 48 hrs): ~1.5 fold increase in appotosis @ 3 μM and
